Columns and labels:
[1] = target: Nuclear body protein SP140-like protein (Homo sapiens) (UniProt Q9H930); test: Selectivity interaction (Human bromodomain panel (DSF assay)) EUB0000233b SP140L
[2] = target: Cyclin-G-associated kinase (Homo sapiens, UniProt O14976); test: Selectivity interaction (Competition-binding assay (DiscoverX)) EUB0000229b GAK
[3] = target: Serine/threonine-protein kinase tousled-like 2 (Homo sapiens) (UniProt Q86UE8); test: Selectivity interaction (KinomeScan (DiscoverX)) EUB0000695a TLK2; settings: at 100 nM
[4] = target: RAC-beta serine/threonine-protein kinase (Homo sapiens) (UniProt P31751); test: Selectivity interaction (Kinase panel (Z-LYTE Assay)) EUB0001632a AKT2; settings: at 10 µM
[5] = target: T1, Serine/threonine-protein kinase RIO1 (Homo sapiens) (UniProt Q9BRS2); test: Selectivity interaction (KinomeScan (DiscoverX)) EUB0001049a RIOK1; settings: at 1 µM
T1 sequence (whole entry): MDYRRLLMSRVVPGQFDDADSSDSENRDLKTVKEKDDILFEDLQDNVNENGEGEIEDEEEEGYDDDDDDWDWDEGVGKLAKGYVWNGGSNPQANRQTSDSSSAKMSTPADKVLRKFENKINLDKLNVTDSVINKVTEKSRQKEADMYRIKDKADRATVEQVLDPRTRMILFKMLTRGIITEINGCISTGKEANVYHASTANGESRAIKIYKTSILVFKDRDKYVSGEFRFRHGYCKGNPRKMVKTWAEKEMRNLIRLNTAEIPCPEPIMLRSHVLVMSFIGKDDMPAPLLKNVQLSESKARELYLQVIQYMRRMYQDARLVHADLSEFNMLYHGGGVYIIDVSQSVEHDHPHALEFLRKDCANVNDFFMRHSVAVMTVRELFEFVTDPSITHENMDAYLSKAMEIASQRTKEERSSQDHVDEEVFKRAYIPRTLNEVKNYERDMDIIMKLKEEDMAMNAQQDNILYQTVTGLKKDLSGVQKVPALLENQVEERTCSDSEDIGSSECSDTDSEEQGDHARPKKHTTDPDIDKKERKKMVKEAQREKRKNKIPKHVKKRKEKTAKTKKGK

[6] = target: 5'-AMP-activated protein kinase catalytic subunit alpha-1 (Homo sapiens, UniProt Q13131); test: Selectivity interaction (KinomeScan (DiscoverX)) EUB0001049a PRKAA1; settings: at 1 µM
[7] = target: Mitogen-activated protein kinase 3 (Homo sapiens, UniProt P27361); test: Selectivity interaction (KinomeScan (DiscoverX)) EUB0001619a MAPK3; settings: at 1 µM
[8] = target: T2, Ephrin type-B receptor 3 (Homo sapiens) (UniProt P54753); test: Selectivity interaction (Kinase panel (DSF assay)) EUB0001558a EPHB3
T2 sequence (whole entry): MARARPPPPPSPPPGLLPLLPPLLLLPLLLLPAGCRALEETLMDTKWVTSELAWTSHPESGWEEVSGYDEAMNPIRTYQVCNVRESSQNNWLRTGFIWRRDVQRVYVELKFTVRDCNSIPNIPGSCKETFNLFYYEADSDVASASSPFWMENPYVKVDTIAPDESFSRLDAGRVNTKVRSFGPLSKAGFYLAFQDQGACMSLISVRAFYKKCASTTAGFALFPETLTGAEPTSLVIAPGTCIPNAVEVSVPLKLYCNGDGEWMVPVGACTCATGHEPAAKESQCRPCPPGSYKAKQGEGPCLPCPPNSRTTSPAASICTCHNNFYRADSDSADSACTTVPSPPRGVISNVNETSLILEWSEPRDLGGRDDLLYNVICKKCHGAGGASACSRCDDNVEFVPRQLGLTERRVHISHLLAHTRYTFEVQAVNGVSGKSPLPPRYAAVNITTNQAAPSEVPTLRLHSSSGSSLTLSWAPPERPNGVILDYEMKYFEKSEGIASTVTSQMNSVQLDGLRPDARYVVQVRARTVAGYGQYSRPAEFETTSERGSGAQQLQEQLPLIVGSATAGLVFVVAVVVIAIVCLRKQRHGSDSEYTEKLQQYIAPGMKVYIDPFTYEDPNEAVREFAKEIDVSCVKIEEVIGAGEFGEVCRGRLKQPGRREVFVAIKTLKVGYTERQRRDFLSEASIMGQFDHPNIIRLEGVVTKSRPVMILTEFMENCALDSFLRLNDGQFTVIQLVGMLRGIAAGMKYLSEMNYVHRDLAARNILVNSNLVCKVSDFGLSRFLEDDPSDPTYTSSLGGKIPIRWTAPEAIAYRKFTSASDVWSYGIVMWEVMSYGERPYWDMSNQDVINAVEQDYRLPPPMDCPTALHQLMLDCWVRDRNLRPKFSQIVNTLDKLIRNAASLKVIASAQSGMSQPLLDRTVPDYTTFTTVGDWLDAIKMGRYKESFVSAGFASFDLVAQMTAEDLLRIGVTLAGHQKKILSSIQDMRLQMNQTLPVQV

[9] = target: T3, Serine/threonine-protein kinase Nek2 (Homo sapiens) (UniProt P51955); test: Selectivity interaction (KinomeScan (DiscoverX)) EUB0000655a NEK2; settings: at 10 µM
T3 sequence (whole entry): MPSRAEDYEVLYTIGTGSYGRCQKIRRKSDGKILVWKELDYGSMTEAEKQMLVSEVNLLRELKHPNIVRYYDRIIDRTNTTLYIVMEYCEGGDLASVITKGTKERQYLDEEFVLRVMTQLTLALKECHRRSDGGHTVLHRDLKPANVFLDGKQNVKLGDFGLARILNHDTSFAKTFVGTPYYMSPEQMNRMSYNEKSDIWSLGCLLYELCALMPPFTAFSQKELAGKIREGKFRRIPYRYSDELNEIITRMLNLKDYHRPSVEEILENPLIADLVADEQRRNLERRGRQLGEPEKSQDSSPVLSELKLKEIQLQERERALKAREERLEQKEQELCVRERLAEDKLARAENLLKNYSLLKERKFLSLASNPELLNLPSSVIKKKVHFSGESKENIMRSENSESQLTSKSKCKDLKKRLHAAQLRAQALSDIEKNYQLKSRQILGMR

[10] = target: Serine/threonine-protein kinase NIM1 (Homo sapiens, UniProt Q8IY84); test: Selectivity interaction (Ambit KINOMEscan and KiNATiv profiling in Jurkat cells) EUB0000090b NIM1K; assay type: cell-based; settings: at 1 µM
Chain of Serine/threonine-protein kinase NIM1 (Q8IY84 whole entry): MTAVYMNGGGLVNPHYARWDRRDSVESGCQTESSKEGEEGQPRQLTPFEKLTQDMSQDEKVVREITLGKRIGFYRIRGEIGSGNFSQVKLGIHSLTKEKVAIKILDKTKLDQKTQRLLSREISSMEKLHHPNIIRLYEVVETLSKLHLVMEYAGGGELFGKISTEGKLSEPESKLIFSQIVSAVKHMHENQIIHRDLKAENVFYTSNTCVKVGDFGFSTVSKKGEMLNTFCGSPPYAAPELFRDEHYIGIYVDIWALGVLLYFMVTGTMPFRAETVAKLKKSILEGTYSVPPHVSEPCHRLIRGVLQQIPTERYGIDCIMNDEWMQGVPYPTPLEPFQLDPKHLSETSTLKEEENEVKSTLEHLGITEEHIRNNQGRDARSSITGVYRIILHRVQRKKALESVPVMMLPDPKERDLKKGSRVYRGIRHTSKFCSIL

Chain of Serine/threonine-protein kinase tousled-like 2 (Homo sapiens) (Q86UE8 whole entry, looked up): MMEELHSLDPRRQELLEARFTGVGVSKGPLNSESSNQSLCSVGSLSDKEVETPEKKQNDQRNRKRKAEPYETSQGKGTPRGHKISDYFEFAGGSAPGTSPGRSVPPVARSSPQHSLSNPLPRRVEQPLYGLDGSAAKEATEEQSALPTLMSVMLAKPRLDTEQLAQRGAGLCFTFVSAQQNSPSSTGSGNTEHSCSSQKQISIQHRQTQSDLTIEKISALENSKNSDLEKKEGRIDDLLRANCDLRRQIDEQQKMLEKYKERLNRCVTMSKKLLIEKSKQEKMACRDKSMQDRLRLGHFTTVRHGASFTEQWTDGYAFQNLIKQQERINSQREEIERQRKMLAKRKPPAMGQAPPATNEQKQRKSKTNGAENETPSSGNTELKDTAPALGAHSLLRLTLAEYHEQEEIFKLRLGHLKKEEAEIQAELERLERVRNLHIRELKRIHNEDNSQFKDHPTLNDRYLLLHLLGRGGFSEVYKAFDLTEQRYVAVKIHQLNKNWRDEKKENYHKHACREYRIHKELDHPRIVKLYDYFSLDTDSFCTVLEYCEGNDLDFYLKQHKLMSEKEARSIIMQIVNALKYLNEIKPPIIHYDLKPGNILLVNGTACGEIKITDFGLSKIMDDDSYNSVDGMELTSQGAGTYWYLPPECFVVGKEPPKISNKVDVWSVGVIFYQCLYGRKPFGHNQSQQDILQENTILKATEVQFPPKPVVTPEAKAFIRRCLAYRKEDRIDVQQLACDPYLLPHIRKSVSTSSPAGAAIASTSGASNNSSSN
Chain of Cyclin-G-associated kinase (O14976 whole entry): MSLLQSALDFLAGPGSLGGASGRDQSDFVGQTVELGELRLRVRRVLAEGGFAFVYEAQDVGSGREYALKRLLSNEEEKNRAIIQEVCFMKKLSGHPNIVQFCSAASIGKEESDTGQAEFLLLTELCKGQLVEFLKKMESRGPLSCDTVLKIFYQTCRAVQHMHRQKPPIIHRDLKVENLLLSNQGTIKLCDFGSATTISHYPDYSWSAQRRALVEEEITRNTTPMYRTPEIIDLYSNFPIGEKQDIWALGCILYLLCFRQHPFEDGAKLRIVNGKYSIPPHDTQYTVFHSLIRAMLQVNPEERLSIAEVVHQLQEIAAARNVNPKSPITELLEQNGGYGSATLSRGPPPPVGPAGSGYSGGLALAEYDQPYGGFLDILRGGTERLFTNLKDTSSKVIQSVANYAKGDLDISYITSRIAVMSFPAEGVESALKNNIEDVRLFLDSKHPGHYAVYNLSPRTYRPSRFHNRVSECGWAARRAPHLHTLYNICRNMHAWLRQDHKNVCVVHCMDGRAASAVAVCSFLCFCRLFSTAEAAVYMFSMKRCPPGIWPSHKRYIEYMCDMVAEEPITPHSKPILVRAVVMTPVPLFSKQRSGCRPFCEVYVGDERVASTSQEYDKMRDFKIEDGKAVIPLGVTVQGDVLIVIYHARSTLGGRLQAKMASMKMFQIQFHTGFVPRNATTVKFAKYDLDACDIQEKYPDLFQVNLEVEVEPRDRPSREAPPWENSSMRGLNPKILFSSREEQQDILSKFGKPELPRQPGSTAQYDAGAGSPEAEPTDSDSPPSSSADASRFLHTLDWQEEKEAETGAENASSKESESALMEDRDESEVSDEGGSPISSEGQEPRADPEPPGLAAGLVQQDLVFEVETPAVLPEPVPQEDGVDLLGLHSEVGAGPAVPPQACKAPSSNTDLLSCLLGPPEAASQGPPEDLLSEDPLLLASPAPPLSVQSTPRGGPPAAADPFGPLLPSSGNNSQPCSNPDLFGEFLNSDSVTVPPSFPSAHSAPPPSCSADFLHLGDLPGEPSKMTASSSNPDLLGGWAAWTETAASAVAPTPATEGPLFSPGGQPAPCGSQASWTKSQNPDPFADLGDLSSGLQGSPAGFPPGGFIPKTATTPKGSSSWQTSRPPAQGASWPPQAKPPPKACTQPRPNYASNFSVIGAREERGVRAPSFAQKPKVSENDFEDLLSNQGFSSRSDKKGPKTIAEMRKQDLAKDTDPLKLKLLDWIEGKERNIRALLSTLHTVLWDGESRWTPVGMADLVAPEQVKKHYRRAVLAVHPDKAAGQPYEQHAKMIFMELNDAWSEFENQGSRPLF
Chain of Nuclear body protein SP140-like protein (Homo sapiens) (Q9H930 whole entry): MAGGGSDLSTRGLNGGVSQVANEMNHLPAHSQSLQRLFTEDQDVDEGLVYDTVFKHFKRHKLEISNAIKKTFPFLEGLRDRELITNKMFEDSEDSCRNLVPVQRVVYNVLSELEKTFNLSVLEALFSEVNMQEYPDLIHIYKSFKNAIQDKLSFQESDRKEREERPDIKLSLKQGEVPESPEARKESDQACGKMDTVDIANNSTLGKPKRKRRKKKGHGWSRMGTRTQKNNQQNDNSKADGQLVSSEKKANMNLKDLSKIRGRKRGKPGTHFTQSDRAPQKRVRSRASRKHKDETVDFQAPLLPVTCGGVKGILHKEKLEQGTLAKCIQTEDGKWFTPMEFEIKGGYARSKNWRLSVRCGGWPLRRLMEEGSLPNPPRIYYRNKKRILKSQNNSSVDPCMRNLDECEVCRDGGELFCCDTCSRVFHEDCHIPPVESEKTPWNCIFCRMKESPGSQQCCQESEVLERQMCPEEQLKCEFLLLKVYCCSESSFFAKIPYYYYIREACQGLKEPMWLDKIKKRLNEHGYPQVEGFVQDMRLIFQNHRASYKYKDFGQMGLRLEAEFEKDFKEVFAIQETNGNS
Chain of RAC-beta serine/threonine-protein kinase (Homo sapiens) (P31751 whole entry): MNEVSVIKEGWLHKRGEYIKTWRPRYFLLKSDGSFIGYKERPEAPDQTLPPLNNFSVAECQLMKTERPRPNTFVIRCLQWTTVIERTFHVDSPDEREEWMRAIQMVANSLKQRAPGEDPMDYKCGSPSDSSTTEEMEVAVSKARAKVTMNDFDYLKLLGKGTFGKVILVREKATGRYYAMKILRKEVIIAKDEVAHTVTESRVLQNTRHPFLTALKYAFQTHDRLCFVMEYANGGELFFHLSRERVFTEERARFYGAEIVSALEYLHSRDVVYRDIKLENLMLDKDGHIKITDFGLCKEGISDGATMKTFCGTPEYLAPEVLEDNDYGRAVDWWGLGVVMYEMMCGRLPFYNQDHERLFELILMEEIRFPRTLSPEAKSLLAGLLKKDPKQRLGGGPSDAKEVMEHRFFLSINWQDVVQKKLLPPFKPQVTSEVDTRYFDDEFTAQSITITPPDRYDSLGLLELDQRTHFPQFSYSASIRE
Chain of Mitogen-activated protein kinase 3 (P27361 whole entry): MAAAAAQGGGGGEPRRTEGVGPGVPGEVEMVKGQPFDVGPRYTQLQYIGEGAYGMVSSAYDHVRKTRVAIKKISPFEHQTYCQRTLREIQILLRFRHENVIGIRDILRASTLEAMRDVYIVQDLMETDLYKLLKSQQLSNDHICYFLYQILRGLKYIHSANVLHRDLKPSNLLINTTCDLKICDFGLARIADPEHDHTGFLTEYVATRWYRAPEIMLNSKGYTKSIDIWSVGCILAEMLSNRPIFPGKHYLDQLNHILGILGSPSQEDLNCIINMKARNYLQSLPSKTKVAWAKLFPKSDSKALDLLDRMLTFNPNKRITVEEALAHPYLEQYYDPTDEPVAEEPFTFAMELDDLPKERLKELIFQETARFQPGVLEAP
Chain of 5'-AMP-activated protein kinase catalytic subunit alpha-1 (Q13131 whole entry, looked up): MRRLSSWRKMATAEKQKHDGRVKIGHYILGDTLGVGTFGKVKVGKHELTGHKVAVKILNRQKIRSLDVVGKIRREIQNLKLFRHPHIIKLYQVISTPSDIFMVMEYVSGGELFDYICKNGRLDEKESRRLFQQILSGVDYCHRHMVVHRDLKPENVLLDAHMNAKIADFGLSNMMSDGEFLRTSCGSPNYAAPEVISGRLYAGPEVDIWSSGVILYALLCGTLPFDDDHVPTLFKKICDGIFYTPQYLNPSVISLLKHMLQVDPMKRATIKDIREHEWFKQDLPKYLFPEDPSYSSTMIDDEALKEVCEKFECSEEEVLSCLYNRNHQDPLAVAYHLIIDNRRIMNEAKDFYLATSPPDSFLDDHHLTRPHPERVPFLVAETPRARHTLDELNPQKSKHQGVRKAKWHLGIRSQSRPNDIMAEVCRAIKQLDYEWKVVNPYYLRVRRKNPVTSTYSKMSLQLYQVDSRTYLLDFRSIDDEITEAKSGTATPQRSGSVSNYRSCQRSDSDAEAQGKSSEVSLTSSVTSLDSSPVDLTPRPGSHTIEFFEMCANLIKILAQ

For `CN(C)CCCOc1ccc(-c2cc(NCCCn3cccn3)nc(S(C)(=O)=O)n2)cc1`, the dTM [1] was < 2 K.

`COc1cc(N(C)c2ccnc3ccc(C(F)(F)F)cc23)cc(OC)c1OC` was tested, and the Kd [2] was 7.1 µM.

In the case of `Cc1cc(F)c(C(=O)Nc2cccc(-c3nncn3C(C)C)n2)cc1-n1cnc(C2CC2)c1`, the % of control [3] is reported as 100%.

Work on `Cn1cc(-n2cnc3c(NCc4nc5cc(Cl)c(Cl)cc5[nH]4)nc(N4CCOCC4)nc32)cn1` yielded a % of control [4] of -2.38%.

Molecule `COc1cc(Nc2nc(C)cc(-c3cnn4nc(OC)ccc34)n2)cc(C(F)(F)F)c1` has a % of control [5] of 89% and a % of control [6] of 87%.

For `N#Cc1cccc(-c2c[nH]c3ncnc(N4CCOCC4)c23)c1`, the % of control [7] was 87%.

For `CC(C)(O)[C@H](F)CN1Cc2cc(NC(=O)c3cnn4cccnc34)c(N3CCOCC3)cc2C1=O`, the dTM [8] was 2.1 K.

With `CN(C)CCOc1ccc(-c2nc(-c3ccncc3)c(-c3ccc4c(c3)CC/C4=N\O)[nH]2)cc1` the % of control [9] was 100%.

With `CN(C)C/C=C/C(=O)Nc1ccc(C(=O)N2CCCC(Nc3ncc(Cl)c(-c4c[nH]c5ccccc45)n3)C2)cc1` (stereo not given) the % of control [10] was 93%.

Reference: ChEMBL document CHEMBL5465560, “Selectivity Literature for EUbOPEN Chemogenomic Library” (2024)
